A value given as a limit tells only on which side of the number the result lay.

Assay type in all cases: biochemical
The target in one assay is Cathepsin B (Homo sapiens, UniProt P07858). Description: Cathepsin B inhibition assay, fluorogenic peptide substrate (selectivity for Cat. S over Cat. B). The conditions noted are these: ratio of cathepsin B inhibition constant to cathepsin S inhibition constant. Here is the method:
(§1) The optimal substrate for cathepsin B, acetyl-histidine-proline-valine-lysine-amino carbamoyl coumarin, was identified from screening a combinatorial library of fluorogenic peptide substrates (Harris, J. L., B. J. Backes, et al. Proc Natl Acad Sci U S A 2000, 97(14), 7754-9). Kinetic measurements are performed in a total reaction volume of 30 μl in 384-well microtiter plates. Cathepsin B, at a final concentration of 1.5 nM (active site), is incubated with the compounds at twelve varying concentrations in a buffer containing 100 mM NaAc (pH5.5), 1 mM EDTA, 100 mM NaCl, 0.01% Brij-35 for 20 minutes at room temperature. Control reactions in the absence of inhibitor are performed in replicates of 24. The reactions are initiated by adding the substrate, acetyl-histidine-proline-valine-lysine-amino carbamoyl coumarin, to a final concentration of 10 ™. The rate of substrate hydrolysis is measured by monitoring the increase in fluorescence at an excitation wavelength of 380 nm and an emission wavelength of 450 nm that results from cleavage of the aniline bond in the substrate by the enzyme. The apparent inhibition constants for the compounds are determined from the enzyme progress curves (Kuzmic, P., K. C. Elrod, et al. Anal Biochem 2000, 286(1), 45-50) and are then used to calculate the inhibition constants for competitive inhibitors.
(§2) Selectivity for cathepsin S in the presence of cathepsin isozymes was determined by the ratio of the cathepsin isozyme inhibition constant of a compound of the present invention to the cathepsin S inhibition constant of the same compound. Preferred compounds of the present invention selective for cathepsin S have ratios of greater than 10. More preferred compounds of the present invention selective for cathepsin S have ratios of greater than 100. Most preferred compounds of the present invention selective for cathepsin S have ratios of greater than 1000.

Another assay concerns the target Cathepsin S (Homo sapiens, UniProt P25774). Description: Cathepsin S inhibition assay, fluorogenic peptide substrate. Particulars: Cathepsin S inhibition constant; pH5.5, 20 minutes preincubation at room temperature; read-out: Ki Cat. S. Here is the method: as §1, with “S,” for “B,”, “0.3-3” for “1.5”, “50 μM.” for “10 ™.”
A further assay addresses Cathepsin L (Homo sapiens, UniProt P07711). The experiment in a line: Cathepsin L inhibition assay, fluorogenic peptide substrate (selectivity for Cat. S over Cat. L). Particulars: ratio of cathepsin L inhibition constant to cathepsin S inhibition constant. Here is the method: as §1, with “L, acetyl-histidine-lysine-phenylalanine-lysine-amino” for “B, acetyl-histidine-proline-valine-lysine-amino”, “L,” for “B,”, “0.1” for “1.5”, “acetyl-histidine-lysine-phenylalanine-lysine-amino” for “acetyl-histidine-proline-valine-lysine-amino”, “20 μM.” for “10 ™.”
as §2

In the next assay the target is T1, Cathepsin K (Homo sapiens, UniProt P43235).
T1 sequence (P43235 115-329): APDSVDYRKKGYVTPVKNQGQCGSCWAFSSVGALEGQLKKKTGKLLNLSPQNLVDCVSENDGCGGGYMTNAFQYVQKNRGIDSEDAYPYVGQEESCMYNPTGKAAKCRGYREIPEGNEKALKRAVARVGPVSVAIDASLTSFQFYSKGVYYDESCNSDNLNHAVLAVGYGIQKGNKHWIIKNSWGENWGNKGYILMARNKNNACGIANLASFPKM
Description: Cathepsin K inhibition assay, fluorogenic peptide substrate (selectivity for Cat. S over Cat. K). The conditions noted are these: ratio of cathepsin K inhibition constant to cathepsin S inhibition constant. The procedure: as §1, with “K, acetyl-lysine-histidine-proline-lysine-amino” for “B, acetyl-histidine-proline-valine-lysine-amino”, “K,” for “B,”, “3.5” for “1.5”, “acetyl-lysine-histidine-proline-lysine-amino” for “acetyl-histidine-proline-valine-lysine-amino”, “40 μM.” for “10 ™.”
as §2

Chain of Cathepsin S (P25774 115-331, species assumed): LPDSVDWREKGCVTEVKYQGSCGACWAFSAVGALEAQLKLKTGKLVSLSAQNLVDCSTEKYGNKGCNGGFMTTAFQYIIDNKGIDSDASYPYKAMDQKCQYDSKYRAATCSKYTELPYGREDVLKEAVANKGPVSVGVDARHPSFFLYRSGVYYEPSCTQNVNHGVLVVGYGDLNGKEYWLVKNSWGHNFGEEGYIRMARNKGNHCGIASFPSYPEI
Chain of Cathepsin L (P07711 114-333, species assumed): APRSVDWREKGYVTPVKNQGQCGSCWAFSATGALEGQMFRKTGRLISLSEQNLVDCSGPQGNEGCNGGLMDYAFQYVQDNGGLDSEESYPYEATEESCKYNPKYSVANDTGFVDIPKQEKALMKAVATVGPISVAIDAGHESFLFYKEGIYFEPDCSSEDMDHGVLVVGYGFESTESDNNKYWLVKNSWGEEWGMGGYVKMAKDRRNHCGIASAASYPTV

As to `CC(C)(C)C(Cn1cnc2cc(Cl)c(Cl)cc21)OC(=O)N[C@@H](CO)CN1CCc2cc(F)ccc21` (mixture of isomers) [Example 3, 1-(5,6-Dichloro-benzimidazol-1-ylmethyl)-2,2-dimethyl-propyl [2-(5-fluoro-2,3-dihydro-indol-1-yl)-1-(R)-hydroxymethyl-ethyl]carbamate], the “Selectivity for Cat. S over Cat. B” value at Cathepsin B is on record as “+ (+, >10)”. Moreover, at Cathepsin S, the Ki was less than 100 nM. For the same compound, the “Selectivity for Cat. S over Cat. L” value on Cathepsin L is listed as “− (−, <10)”. Moreover, the “Selectivity for Cat. S over Cat. K” value at Cathepsin K is “+ (+, >10)”.

With `CC(C)(C)C[C@H](Cn1cnc2cc(Cl)c(Cl)cc21)OC(=O)N[C@@H](CO)CN1CCc2cc(F)ccc21` [Example 1, 1-(R)-(5,6-Dichloro-benzimidazol-1-ylmethyl)-3,3-dimethyl-butyl [2-(5-fluoro-2,3-dihydro-indol-1-yl)-1-(R)-hydroxymethyl-ethyl]carbamate], the “Selectivity for Cat. S over Cat. B” value at Cathepsin B is “+ (+, >10)”. Moreover, the Ki on Cathepsin S was less than 10000 nM. In addition, the “Selectivity for Cat. S over Cat. L” value on Cathepsin L is “+ (+, >10)”. Besides, on Cathepsin K, the “Selectivity for Cat. S over Cat. K” value is recorded as “− (−, <10)”.

Take `CC(C)(C)C[C@@H](Cn1cnc2cc(Cl)c(Cl)cc21)OC(=O)N[C@@H](CO)CN1CCc2cc(F)ccc21` [Example 2, 1-(S)-(5,6-Dichloro-benzimidazol-1-ylmethyl)-3,3-dimethyl-butyl [2-(5-fluoro-2,3-dihydro-indol-1-yl)-1-(R)-hydroxymethyl-ethyl]carbamate]: the “Selectivity for Cat. S over Cat. B” value on Cathepsin B is reported as “+++ (+++, >1000)”. Besides, on Cathepsin S, the Ki is less than 100 nM. At Cathepsin L, the “Selectivity for Cat. S over Cat. L” value is listed as “+ (+, >10)”. Moreover, on Cathepsin K, the “Selectivity for Cat. S over Cat. K” value is on record as “++ (++, >100)”.

On to `C[C@@H](CN1CCc2cc(F)ccc21)NC(=O)O[C@H](Cn1cnc2ccccc21)CC(C)(C)C` [Example 4, 1-(S)-(Benzimidazol-1-ylmethyl-3,3-dimethyl)-butyl [2-(5-fluoro-2,3-dihydro-indol-1-yl)-1-(S)-methyl-ethyl]carbamate], for which the “Selectivity for Cat. S over Cat. B” value on Cathepsin B was “+++ (+++, >1000)”. Also, on Cathepsin S, the Ki is less than 100 nM. The “Selectivity for Cat. S over Cat. L” value at Cathepsin L is on record as “++ (++, >100)”. Moreover, the “Selectivity for Cat. S over Cat. K” value at Cathepsin K is on record as “+ (+, >10)”.

Regarding `C[C@@H](CN1CCc2cc(F)ccc21)NC(=O)O[C@H](CN1CCOCC1)CC(C)(C)C` [Example 5, 3,3-Dimethyl-(S)-1-morpholin-4-ylmethyl-butyl [2-(5-fluoro-2,3-dihydro-indol-1-yl)-1-(S)-methyl-ethyl]carbamate], at Cathepsin B, the “Selectivity for Cat. S over Cat. B” value is “++ (++, >100)”. Moreover, the Ki on Cathepsin S is less than 1000 nM. For the same compound, at Cathepsin L, the “Selectivity for Cat. S over Cat. L” value was “++ (++, >100)”. Also, the “Selectivity for Cat. S over Cat. K” value on Cathepsin K is listed as “− (−, <10)”.

As to `C[C@@H](CN1CCc2cc(F)ccc21)NC(=O)O[C@@H](CC1CCCC1)Cn1cnc2ccccc21` [Example 6, 2-(Benzimidazol-1-yl)-1-(S)-cyclopentylmethyl-ethyl [2-(5-fluoro-2,3-dihydro-indol-1-yl)-1-(S)-methyl-ethyl]carbamate], the “Selectivity for Cat. S over Cat. B” value at Cathepsin B is listed as “+++ (+++, >1000)”. Besides, the inhibition constant (Ki) on Cathepsin S is less than 100 nM. Also, on Cathepsin L, the “Selectivity for Cat. S over Cat. L” value is listed as “++ (++, >100)”. The “Selectivity for Cat. S over Cat. K” value on Cathepsin K is reported as “+ (+, >10)”.

Turning to `C[C@@H](CNc1ccc(OC(F)F)cc1)NC(=O)O[C@@H](CC1CCCC1)Cn1ccc(C(F)(F)F)n1` [Example 7, 1-(S)-Cyclopentylmethyl-2-(3-trifluoromethyl-pyrazol-1-yl)-ethyl [2-(4-difluoromethoxy-phenylamino)-1-(S)-methyl-ethyl]carbamate], the “Selectivity for Cat. S over Cat. B” value at Cathepsin B is “++ (++, >100)”. Also, the Ki on Cathepsin S is less than 1000 nM. Moreover, the “Selectivity for Cat. S over Cat. L” value at Cathepsin L is “++ (++, >100)”. The “Selectivity for Cat. S over Cat. K” value at Cathepsin K is reported as “+ (+, >10)”.

For `C[C@@H](CNc1ccc(OC(F)F)cc1)NC(=O)O[C@@H](CC1CCCC1)Cn1cnc2cc(Cl)c(Cl)cc21` [Example 8, 1-(S)-Cyclopentylmethyl-2-(5,6-dichloro-benzimidazol-1-yl)-ethyl [2-(4-difluoromethoxy-phenylamino)-1-(S)-methyl-ethyl]carbamate], the “Selectivity for Cat. S over Cat. B” value on Cathepsin B was “+++ (+++, >1000)”. The Ki on Cathepsin S was less than 1000 nM. For the same compound, at Cathepsin L, the “Selectivity for Cat. S over Cat. L” value is reported as “++ (++, >100)”. Besides, the “Selectivity for Cat. S over Cat. K” value on Cathepsin K was “+ (+, >10)”.

Turning to `C[C@@H](CN1CCc2cc(F)ccc21)NC(=O)O[C@@H](CC1CCCC1)Cn1cnc2cc(Cl)c(Cl)cc21` [Example 9, 1-(S)-cyclopentylmethyl-2-(5,6-dichloro-benzimidazol-1-yl)-ethyl [2-(5-fluoro-2,3-dihydro-indol-1-yl)-1-(S)-methyl-ethyl]carbamate], the “Selectivity for Cat. S over Cat. B” value on Cathepsin B is given as “+++ (+++, >1000)”. In addition, at Cathepsin S, the Ki is less than 100 nM. For the same compound, the “Selectivity for Cat. S over Cat. L” value at Cathepsin L is reported as “+ (+, >10)”. On Cathepsin K, the “Selectivity for Cat. S over Cat. K” value was “+ (+, >10)”.

`C[C@@H](CNc1ccc(OC(F)(F)F)cc1)NC(=O)O[C@@H](CC1CCCC1)Cn1cnc2cc(Cl)c(Cl)cc21` [Example 10, 1-(S)-Cyclopentylmethyl-2-(5,6-dichloro-benzimidazol-1-yl)-ethyl [2-(4-trifluoromethoxy-phenylamino)-1-(S)-methyl-ethyl]carbamate]: the “Selectivity for Cat. S over Cat. B” value on Cathepsin B is “+++ (+++, >1000)”. For the same compound, the Ki on Cathepsin S is less than 100 nM. Further, the “Selectivity for Cat. S over Cat. L” value at Cathepsin L is given as “+ (+, >10)”. For the same compound, at Cathepsin K, the “Selectivity for Cat. S over Cat. K” value was “+ (+, >10)”.

For the origin of these results see patent US7256207B2, “Inhibitors of cathepsin S” (IRM LLC, priority 2003, dated 2007).
